The source of these data is patent US12655144B2, “Method for producing heterocyclic compound” (TAKEDA PHARMACEUTICAL COMPANY LIMITED, priority 2020, dated 2026).

One assay relates to OCI-Ly3 cells. Briefly: Measurement of growth inhibitory activity using OCI-Ly3 cells. In kind it is cell-based. Conditions: Homo sapiens, 144 h, 3 μM compound, 6 days, Cell Titer-Glo, read-out: Cell growth inhibition rate (%) at 3 μM compound. Here is the method:
Measurement of Growth Inhibitory Activity Using OCI-Ly3 Cells
OCI-Ly3 cells were seeded in a cell culture medium IMDM (Fujifilm Wako Pure Chemical Corporation) containing 20% FCS (fetal calf serum, Thermo Fisher Scientific) and monothioglycerol (Fujifilm Wako Pure Chemical Corporation) so as to be at 1.25×10^3 cells/well on a 96-well plate. […] Subsequently, the luminescence value was measured with Envision (PerkinElmer) on the day of seeding. […] Subsequently, the luminescence value was measured in the same manner. The inhibition rate (%) of the test compound on OCI-Ly3 cell growth was calculated by the following formula. Cell growth inhibition rate (%)=(1−(Luminescent value on day 6 of test compound treatment−Luminescent value before test compound treatment)/(Luminescent value on day 6 without compound addition−Luminescent value before compound treatment))×100
Background: ATP-based viability assays read luminescence as a measure of living cells.

Assay [1] concerns OCI-Ly3 subcutaneously transplanted tumor. Briefly: Antitumor effect on OCI-Ly3 cell-bearing cancer model. In kind it is in vivo, NOG female mice. Conditions: 10 mg/kg orally twice daily for 3 weeks; average tumor volume increase ratio vs control; NOG mice bearing OCI-Ly3.
Experimental: Antitumor Effect on OCI-Ly3 Cell-Bearing Cancer Model Human diffuse large-cell B-cell lymphoma cells OCI-Ly3 (DSMZ, German Collection of Microorganisms and Cell Cultures) were suspended in a Matrigel (BD Biosciences):HBSS (Thermo Fisher Scientific)=1:1 solution, and 1×10^7 cells were transplanted subcutaneously into the abdomen of NOG female mice (CLEA Japan, Inc.). The tumor diameter of the engrafted tumor was measured, and the tumor volume was calculated by the following formula. Tumor volume=major axis×minor axis×minor axis×(1/2) Individuals with the engrafted tumor having a tumor volume of about 120 mm^3 were selected, and 6 animals per group were used in the experiment. A suspension of the test compound in 0.5% methylcellulose solution (Fujifilm Wako Pure Chemical Corporation) was orally administered at a dose of 10 mg/kg (10 mL/kg) twice daily for 3 weeks. The tumor volume was measured on the day before the start of administration and every 3 to 4 days over time, and the tumor diameter was finally measured the day after the end of administration for 21 days to calculate the tumor volume. The tumor growth of the test compound-administered group compared with the control-administered group was calculated by the following formula as an average tumor volume increase ratio T/C. […]

SMILES strings stand for the structures.

As usually defined, the inhibition is the drop in the measured response relative to a control, in per cent. In the case of `CO[C@@H](C)c1c(NC(=O)Nc2cnc(-n3nccn3)c(C(F)(F)F)c2)cnc2ccc(Cl)nc12` [Compound X1, (S)—N-(6-Chloro-4-(1-methoxyethyl)-1,5-naphthyridine-3-yl)-N′-(6-(2H-1,2,3-triazole-2-yl)-5-(trifluoromethyl)pyridine-3-yl)urea], the inhibition at 3 µM in the assay with OCI-Ly3 cells is 97%. Besides, the “T/C (%)” value in assay [1] was determined as 2.0%.
On the same counts, the results for `CO[C@@H](C)c1c(NC(=O)Nc2cnc(-n3nccn3)c(C(F)(F)F)c2)cnc2ccc(C)nc12` [Compound X2, (S)—N-(4-(1-methoxyethyl)-6-methyl-1,5-naphthyridine-3-yl)-N′-(6-(2H-1,2,3-triazole-2-yl)-5-(trifluoromethyl)pyridine-3-yl)urea] are 99% and 38.7%.
